Oligonucleotides are written 5' to 3', each unit as a sugar letter and its base; * is a phosphorothioate linkage, no mark a phosphodiester; rarer units and linkages stand in square brackets, end groups in braces. Plain capitals give the bases only. e = 2'-O-(2-methoxyethyl) (MOE); [5mC] = 5-methylcytosine
Columns and labels:
[1] = tested on: IKBKAP pre-mRNA (mt19-21 minigene); assay: Exon 20 inclusion in HEK-293 cells harboring the mt19-21 IKBKAP minigene (RT-PCR); assay type: cell-based, human; settings: Table 2 (microwalk experiment); HEK-293 with mt19-21 minigene, 0.007 nmol oligonucleotide by electroporation, RT-PCR two days later
Summary of the method: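 HEK-293 cells carrying the mt19-21 IKBKAP minigene were electroporated with 0.007 nmol uniform 2′-MOE phosphate-backbone antisense oligonucleotide (15- or 20-mers, 5-methylcytosines). After two days, RT-PCR with α^32P-dCTP-labeled amplicons, native PAGE and phosphorimaging gave exon 20 inclusion, normalized for G+C content.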

[2] = tested on: IKAP protein; assay: IKAP protein levels in GM04899 fibroblasts (SDS-PAGE, anti-IKAP antibody, band intensity); assay type: cell-based, human
Protocol: Protein samples were obtained by Trizol extraction and separated by SDS-PAGE. The bands were transferred onto a nitrocellulose membrane and probed with an anti-IKAP antibody (abcam #ab56362) (1:1,000 dilution in 5% milk in TBST) for 12 hrs. The membrane was washed 5 times with TBST for 5 min each and then probed with secondary antibody 800 nm LiCor (1:5,000 in 5% milk in TBST) for 1 hr in the dark. The membrane was subsequently washed 5 times with TBST for 5 min each. The bands were then exposed at 800 nm and band intensity was quantified using an Odyssey (LiCor) instrument. The results are presented in Table 4 as percent increase in band intensity compared to the control oligonucleotide-treated bands.

[3] = tested on: human IKBKAP mRNA; assay: Exon 20 inclusion in neonatal transgenic mice after single ICV or subcutaneous injection; assay type: in vivo, mouse; settings: neonatal Tg mice
Protocol: To investigate the effect of ISIS 421992 in an animal model, transgenic mice that carry the entire human IKBKAP gene with the major FD mutation, in addition to being homozygous wild type at the mouse Ikbkap locus, were obtained from an NIH core facility.
Neonatal transgenic mice were also treated with ISIS 421992 administered as a single ICV injection dose of 2.5 μg, 5 μg, 10 μg, 20 μg, or 30 μg. A group of neonatal mice were treated with ISIS 421992 administered subcutaneously using a 10 μL micro syringe (Hamilton) and a 33-gauge needle. In all cases, the injections were administered at P1 and the RNA was assayed at P8. The RNA splicing patterns in the various tissues after administering ISIS 421992 in neonate mice were then observed. Multiple lanes for each condition represent independent experiments.

ISIS 421992: uniform 2′-MOE 20-mer, phosphate backbone; GTCGCAAACAGTACAATGGC, SEQ ID NO 61, intron 20 (eGeTe[5mC]eGe[5mC]eAeAeAe[5mC]eAeGeTeAe[5mC]eAeAeTeGeGe[5mC])
% inclusion (exon 20) [1]: 96%
Percent increase in protein band intensity (IKAP) ([2]; GM04899, 2 nM as printed in Table 4, 3 days after transfection, compared to control oligonucleotide-treated bands): 76%
IKAP protein levels, in words ([2]; GM04899, 5 nM, assayed 3 days after transfection): significant increase in IKAP protein levels
tissue pattern of full-length IKBKAP mRNA, in words ([3]; ICV administration): increased full-length IKBKAP mRNA in the brain and spinal cord, with moderate effects in the peripheral tissues
Percent inclusion of exon 20 in human IKBKAP mRNA ([3]; ICV administration, Brain): 50%
Percent inclusion of exon 20 in human IKBKAP mRNA ([3]; ICV administration, Heart): 40%
Percent inclusion of exon 20 in human IKBKAP mRNA ([3]; ICV administration, Kidney): 33%
Percent inclusion of exon 20 in human IKBKAP mRNA ([3]; ICV administration, Liver): 44%
Percent inclusion of exon 20 in human IKBKAP mRNA ([3]; ICV administration, Muscle): 33%
Percent inclusion of exon 20 in human IKBKAP mRNA ([3]; ICV administration, Spinal Cord): 47%
Percent inclusion of exon 20 in human IKBKAP mRNA ([3]; s.c. injection, Brain): 18%
Percent inclusion of exon 20 in human IKBKAP mRNA ([3]; s.c. injection, Heart): 58%
Percent inclusion of exon 20 in human IKBKAP mRNA ([3]; s.c. injection, Kidney): 36%
Percent inclusion of exon 20 in human IKBKAP mRNA ([3]; s.c. injection, Liver): 72%
Percent inclusion of exon 20 in human IKBKAP mRNA ([3]; s.c. injection, Muscle): 60%
Percent inclusion of exon 20 in human IKBKAP mRNA ([3]; s.c. injection, Spinal Cord): 19%
Percent inclusion of exon 20 in human IKBKAP mRNA ([3]; single ICV injection 2.5 μg at P1, RNA at P8): 13%
Percent inclusion of exon 20 in human IKBKAP mRNA ([3]; single ICV injection 5 μg at P1, RNA at P8): 18%
Percent inclusion of exon 20 in human IKBKAP mRNA ([3]; single ICV injection 10 μg at P1, RNA at P8): 34%
Percent inclusion of exon 20 in human IKBKAP mRNA ([3]; single ICV injection 20 μg at P1, RNA at P8): 36%
Percent inclusion of exon 20 in human IKBKAP mRNA ([3]; single ICV injection 30 μg at P1, RNA at P8): 48%
tissue pattern of full-length IKBKAP mRNA, in words ([3]; subcutaneous administration): primarily affected expression in the liver, skeletal muscle, and heart with moderate effects in the CNS
